Measurements from patent publication US20110207751A1, “HETEROCYCLIC COMPOUNDS AND USES AS ANTICANCER AGENTS” (priority 2010, published 2011).

What was measured:
[1] = tested on: KB cells (parental cervical cancer cell line); test: Inhibition of cell proliferation, xCelligence cell index; type: cell-based; settings: Homo sapiens, 72 hr post compound treatment, read-out: calculated IC50
Description: (§2) The biological activity of compounds disclosed herein was monitored and profiled using the Real-Time Cell Electronic Sensing (RT-CES®) system from ACEA Biosciences, Inc. The RT-CES system utilizes cell-substrate impedance technology to monitor cellular behavior inside tissue culture wells in a microtiter plate format. The technology features in the integration of molecular and cell biology with microelectronics and is based on the electronic detection of biological assay process.
For measurement of cell-substrate or cell-electrode impedance using RT-CES technology, microelectrodes having appropriate geometries are fabricated onto the bottom surfaces of microtiter plate or similar device, facing into the wells. Cells are introduced into the wells of the devices, and make contact to and attach to the electrode surfaces. The presence, absence or change of properties of cells affects the electronic and ionic passage on the electrode sensor surfaces. Measuring the impedance between or among electrodes provides important information about biological status of cells present on the sensors. When there are changes to the biological status of the cells analogue electronic readout signals are measured automatically and in real time, and are converted to digital signals for processing and for analysis. In a RT-CES system, a cell index (arbitrary representation of change in impedance) is automatically derived and provided based on measured electrode impedance values. The cell index obtained for a given well reflects: 1) how many cells are attached to the electrode surfaces in this well; 2) how well cells are attached to the electrode surfaces in this well. […]
To quantify cell status based on the measured cell-electrode impedance, a parameter termed Cell Index is derived. Cell Index is a quantitative measure of the status of the cells in an electrode-containing well. […]
The parental cervical cancer cell line, KB cells were first tested. […] The cell status was monitored prior to and after the compound addition using xCelligence system (Roche). […]

[2] = tested on: KB200 cells over-expressing multiple drug resistant (MDR) gene; test: as above; type: cell-based; settings: Homo sapiens, 72 hr post compound treatment, read-out: calculated IC50
Description: as §2
For measurement of cell-substrate or cell-electrode impedance using RT-CES technology, microelectrodes having appropriate geometries are fabricated onto the bottom surfaces of microtiter plate or similar device, facing into the wells. Cells are introduced into the wells of the devices, and make contact to and attach to the electrode surfaces. The presence, absence or change of properties of cells affects the electronic and ionic passage on the electrode sensor surfaces. Measuring the impedance between or among electrodes provides important information about biological status of cells present on the sensors. When there are changes to the biological status of the cells analogue electronic readout signals are measured automatically and in real time, and are converted to digital signals for processing and for analysis. In a RT-CES system, a cell index (arbitrary representation of change in impedance) is automatically derived and provided based on measured electrode impedance values. The cell index obtained for a given well reflects: 1) how many cells are attached to the electrode surfaces in this well; 2) how well cells are attached to the electrode surfaces in this well. Thus, the more the cells of same type in similar physiological conditions attach the electrode surfaces, the larger the cell index. And, the better the cells attach to the electrode surfaces (e.g., the cells spread-out more to have larger contact areas, or the cells attach tighter to electrode surfaces), the larger the cell index.
To quantify cell status based on the measured cell-electrode impedance, a parameter termed Cell Index is derived. Cell Index is a quantitative measure of the status of the cells in an electrode-containing well. Under the same physiological conditions, more cells attached on to the electrodes leads to larger cell-electrode resistance value, leading to a larger value for Cell Index. Furthermore, for the same number of cells present in the well, a change in the cell status such as morphology will lead to a change in the Cell Index. […]
The efficacy of these compounds was also tested against KB200 cell over-expressing multiple drug resistant (MDR) gene. […] The cell status was monitored prior to and after the compound addition using xCelligence system (Roche). […]

[3] = tested on: tubulin (colchicine-binding site); test: Spin column assay with [^3H]colchicine; settings: tubulin with [^3H]colchicine and unlabeled competitor, 37° C. 1 h
Method: (§1) Spin column assay. […] The reaction mixtures were incubated at 37° C. for 1 h. The samples were loaded onto Illustra™ MicroSpin™ G-50 columns (GE Healthcare) previously equilibrated with the buffer solution. The columns were placed into 1.5-ml tubes and spun at 750 g for 2 min at room temperature, and radioactivity in the flow-through was analyzed by a scintillation counter.

[4] = tested on: tubulin (vinblastine-binding site); test: Spin column assay with [^3H]vinblastine; settings: tubulin with [^3H]vinblastine and unlabeled competitor, 37° C. 1 h
Method: as §1

`CC[C@]1(O)C[C@@H]2CN(CCc3c([nH]c4ccccc34)[C@@](C(=O)OC)(c3cc4c(cc3OC)N(C)[C@H]3[C@@](O)(C(=O)OC)[C@H](OC(C)=O)[C@]5(CC)C=CCN6CC[C@]43[C@@H]65)C2)C1` [vinblastine, reference compound] was tested. Which IC50 [1] did it give?
The IC50 was 4.74 nM.

What about the IC50 [2] of the same molecule?
The IC50 was 135 nM.

And the “amount of [^3H]colchicine in the flow-through” value [3]?
The value was “did not influence the amount of [^3H]colchicine in the flow-through”.

And the “amount of [^3H]vinblastine in the flow-through” value [4]?
The value was “reduced the amount of [^3H]vinblastine found in the flow-through in a concentration-dependent manner”.
